From US10105357B2, “Indication of antibiotic drugs for preparation of cancer inhibition pharmaceutical composition” (LAUNX BIOMEDICAL CO., LTD., priority 2014, dated 2018)
Structures can show the parent of a compound that is named as a salt. Where two headings read alike, the source gives them in different places.

Key:
[1] = tested on: cancer cell lines; assay: Cell viability analysis (WST-1) on cancer cell lines; type: cell-based, human; conditions: drug 10 μM, 72 hours, WST-1; Table 3
[2] = tested on: U-2OS; assay: Cell viability analysis, osteosarcoma U-2OS; type: cell-based, human; conditions: U2OS
[3] = tested on: LoVo (Colorectal Adenocarcinoma); assay: Cell viability analysis, colon cancer LoVo; type: cell-based, human; conditions: for viability at 10 µM: Homo sapiens, LoVo
[4] = tested on: TSGH-8301 (Urinary Bladder Carcinoma); assay: Cell viability analysis, bladder cancer TSGH-8301; type: cell-based, human; conditions: for viability at 10 µM: Homo sapiens
[5] = tested on: A375 (Amelanotic Melanoma); assay: Cell viability analysis, skin cancer A375; type: cell-based, human; conditions: for viability at 10 µM: Homo sapiens
[6] = tested on: AGS (Gastric Adenocarcinoma); assay: Cell viability analysis, gastric cancer AGS; type: cell-based, human; conditions: for viability at 10 µM: Homo sapiens
[7] = tested on: HCT116 (p53+) (Colorectal Carcinoma)
[8] = tested on: A549 (Lung Adenocarcinoma); assay: Cell viability analysis, lung cancer A549; type: cell-based, human; conditions: for viability at 10 µM: Homo sapiens, A549
[9] = tested on: HepG2 (Hepatocellular Carcinoma); assay: Cell viability analysis, hepatic cancer HepG2; type: cell-based, human; conditions: for viability at 10 µM: Homo sapiens
[10] = tested on: BxPC-3; assay: Cell viability analysis, pancreatic cancer BxPC-3; type: cell-based, human
[11] = tested on: MKN-45 (Gastric Adenocarcinoma); assay: Cell viability analysis, gastric cancer MKN-45; type: cell-based, human; conditions: for viability at 10 µM: Homo sapiens
[12] = tested on: MCF7 (Mammary Gland, Adenocarcinoma); assay: Cell viability analysis, breast cancer MCF7; type: cell-based, human; conditions: for viability at 10 µM: Homo sapiens
[13] = tested on: SAS (Tongue squamous cell carcinoma); assay: Cell viability analysis, tongue cancer SAS; type: cell-based, human
[14] = tested on: HeLa (Cervix Adenocarcinoma); assay: Cell viability analysis, cervical cancer HeLa; type: cell-based, human; conditions: for viability at 10 µM: Homo sapiens
[15] = tested on: HI650 (Lung Adenocarcinoma); assay: Cell viability analysis, lung cancer HI650; type: cell-based, human; conditions: for viability at 10 µM: Homo sapiens
[16] = tested on: AsPC-1; assay: Cell viability analysis, pancreatic cancer AsPC-1; type: cell-based, human
[17] = tested on: PC3 (p53−) (Prostate Adenocarcinoma); assay: Cell viability analysis, prostate cancer PC3; type: cell-based, human; conditions: for viability at 10 µM: Homo sapiens
[18] = tested on: BCC (basal cell carcinoma); assay: Cell viability analysis, skin cancer BCC; type: cell-based, human
[19] = tested on: HL-60 (Acute Promyelocytic Leukemia); assay: Cell viability analysis, leukemia HL-60; type: cell-based, human
[20] = tested on: TOV-21G; assay: Cell viability analysis, ovarian cancer TOV-21G; type: cell-based, human; conditions: Homo sapiens, TOV21G, 72 h, read-out: The results of antibiotic drug inhibiting cancer cell lines (cell viability analysis), TOV-21G
[21] = tested on: NIH: OVCAR-3; assay: Cell viability analysis, ovarian cancer NIH: OVCAR-3; type: cell-based, human; conditions: Homo sapiens, OVCAR-3, 72 h, read-out: The results of antibiotic drug inhibiting cancer cell lines (cell viability analysis), NIH-OVCAR-3
[22] = tested on: C-33A (Cervical carcinoma); assay: Cell viability analysis, cervical cancer C-33A; type: cell-based, human; conditions: Homo sapiens, C-33-A, 72 h, read-out: The results of antibiotic drug inhibiting cancer cell lines (cell viability analysis), C-33A
[23] = tested on: Hep3B (hepatocellular carcinoma); assay: Cell viability analysis, hepatic cancer Hep3B; type: cell-based, human; conditions: Homo sapiens, Hep3B, 72 h, read-out: The results of antibiotic drug inhibiting cancer cell lines (cell viability analysis), Hep3B
[24] = tested on: T24; assay: Cell viability analysis, bladder cancer T24; type: cell-based, human; conditions: Homo sapiens, T-24, 72 h, read-out: The results of antibiotic drug inhibiting cancer cell lines (cell viability analysis), T24
[25] = tested on: MDA-MB-231 (Mammary Gland, Adenocarcinoma); assay: Cell viability analysis, breast cancer MDA-MB-231; type: cell-based, human; conditions: Homo sapiens, MDA-MB-231, 72 h, read-out: The results of antibiotic drug inhibiting cancer cell lines (cell viability analysis), MDA-MB231
[26] = tested on: 786-O (Renal adenocarcinoma); assay: Cell viability analysis, renal cancer 786-O; type: cell-based, human; conditions: Homo sapiens, 786-0, 72 h, read-out: The results of antibiotic drug inhibiting cancer cell lines (cell viability analysis), 786-O
[27] = drug 10 μM, 72 hours, WST-1, OD450 nm

CC1(C)S[C@@H]2[C@H](NC(=O)[C@H](N)c3ccc(O)cc3)C(=O)N2[C@H]1C(=O)[O-].[Na+] [Amoxicillin sodium (Amox), Amoxicillin sodium]
inhibition effect on different cancer cell lines [1]: significant inhibition effect | The results of antibiotic drug inhibiting cancer cell lines (cell viability analysis), U2OS ([2]; repeated experiment): 65.21 | cell viability (survival rate), LoVo [3, 27]: 69.1 | The results of antibiotic drug inhibiting cancer cell lines (cell viability analysis), TSGH-8301 ([4]; TSGH-8301, repeated experiment): 129.6 | cell viability (survival rate), TSGH [4, 27]: 45.4 | The results of antibiotic drug inhibiting cancer cell lines (cell viability analysis), A375 ([5]; A375, repeated experiment): 115.9 | cell viability (survival rate), A375 [5, 27]: 78.5 | The results of antibiotic drug inhibiting cancer cell lines (cell viability analysis), AGS ([6]; AGS, repeated experiment): 128.2 | cell viability (survival rate), AGS [6, 27]: 51.2 | viability [7]: 112% | cell viability (survival rate), A549 [8, 27]: 60.6 | The results of antibiotic drug inhibiting cancer cell lines (cell viability analysis), HepG2 ([9]; HepG2, repeated experiment): 124.5 | cell viability (survival rate), HepG2 [9, 27]: 80.8 | The results of antibiotic drug inhibiting cancer cell lines (cell viability analysis), BxPC-3 ([10]; BxPC-3, repeated experiment): 71.08 | The results of antibiotic drug inhibiting cancer cell lines (cell viability analysis), MKN-45 ([11]; MKN-45, repeated experiment): 110.7 | cell viability (survival rate), MKN-45 [11, 27]: 63.2 | cell viability (survival rate), MCF7 [12, 27]: 60.4 | The results of antibiotic drug inhibiting cancer cell lines (cell viability analysis), SAS ([13]; SAS, repeated experiment): 66.94 | The results of antibiotic drug inhibiting cancer cell lines (cell viability analysis), HeLa ([14]; HeLa, repeated experiment): 112.6 | cell viability (survival rate), HeLa [14, 27]: 81.0 | The results of antibiotic drug inhibiting cancer cell lines (cell viability analysis), H1650 ([15]; H1650, repeated experiment): 87.81 | cell viability (survival rate), H1650 [15, 27]: 43.3 | The results of antibiotic drug inhibiting cancer cell lines (cell viability analysis), AsPC-1 ([16]; AsPC-1, repeated experiment): 88.13 | The results of antibiotic drug inhibiting cancer cell lines (cell viability analysis), PC-3 ([17]; PC-3, repeated experiment): 127.2 | cell viability (survival rate), PC3 [17, 27]: 74.8 | The results of antibiotic drug inhibiting cancer cell lines (cell viability analysis), BCC ([18]; BCC, repeated experiment): 115.1

CCn1cc(C(=O)O)c(=O)c2cc(F)c(N3CCNC(C)C3)c(F)c21.Cl (stereo not shown) [Lomefloxacin HCl (Maxaquin)]
cell viability (survival rate), LoVo [3]: 88.9 | cell viability (survival rate), TSGH [4]: 61.2 | cell viability (survival rate), A375 [5]: 87.7 | cell viability (survival rate), AGS [6]: 77.5 | cell viability (survival rate), HCT116 [7]: 113.4 | cell viability (survival rate), A549 [8]: 70.7 | cell viability (survival rate), HL-60 [19]: 96.5 | cell viability (survival rate), HepG2 [9]: 90.5 | cell viability (survival rate), MKN-45 [11]: 92.7 | cell viability (survival rate), MCF7 [12]: 83.5 | cell viability (survival rate), HeLa [14]: 135.0 | cell viability (survival rate), H1650 [15]: 56.6 | cell viability (survival rate), PC3 [17]: 63.3

Cc1cc(C(C)(C)C)cc(C)c1CC1=NCCN1 [Xylometazoline HCl]
viability at 10 µM [20]: 92.3% | inhibition effect on different cancer cell lines [1]: significant inhibition effect | viability at 10 µM ([2]; Homo sapiens, 72 h, read-out: The results of antibiotic drug inhibiting cancer cell lines (cell viability analysis), U2OS): 60.2% | viability at 10 µM [21]: 102% | viability at 10 µM [22]: 104% | viability at 10 µM ([3]; 72 h, repeated experiment, read-out: The results of antibiotic drug inhibiting cancer cell lines (cell viability analysis), LoVo): 88.7% | viability at 10 µM ([3]; drug 10 μM, 72 hours, WST-1, OD450 nm, read-out: cell viability (survival rate), LoVo): 47.1% | viability at 10 µM [23]: 114% | viability at 10 µM ([4]; 72 h, TSGH-8301, repeated experiment, read-out: The results of antibiotic drug inhibiting cancer cell lines (cell viability analysis), TSGH-8301): 122% | viability at 10 µM ([4]; drug 10 μM, 72 hours, WST-1, OD450 nm, read-out: cell viability (survival rate), TSGH): 42.6% | viability at 10 µM ([5]; A-375, 72 h, A375, repeated experiment, read-out: The results of antibiotic drug inhibiting cancer cell lines (cell viability analysis), A375): 102% | viability at 10 µM ([5]; A-375, drug 10 μM, 72 hours, WST-1, OD450 nm, read-out: cell viability (survival rate), A375): 65.1% | viability at 10 µM ([6]; 72 h, AGS, repeated experiment, read-out: The results of antibiotic drug inhibiting cancer cell lines (cell viability analysis), AGS): 125% | viability at 10 µM ([6]; drug 10 μM, 72 hours, WST-1, OD450 nm, read-out: cell viability (survival rate), AGS): 52.2% | viability at 10 µM ([8]; 72 h, repeated experiment, read-out: The results of antibiotic drug inhibiting cancer cell lines (cell viability analysis), A549): 83% | viability at 10 µM ([8]; drug 10 μM, 72 hours, WST-1, OD450 nm, read-out: cell viability (survival rate), A549): 74.7% | viability at 10 µM ([19]; Homo sapiens, HL-60, drug 10 μM, 72 hours, WST-1, OD450 nm, read-out: cell viability (survival rate), HL-60): 84.9% | viability at 10 µM [24]: 92.5% | viability at 10 µM ([9]; 72 h, HepG2, repeated experiment, read-out: The results of antibiotic drug inhibiting cancer cell lines (cell viability analysis), HepG2): 106% | viability at 10 µM ([9]; HepG2, drug 10 μM, 72 hours, WST-1, OD450 nm, read-out: cell viability (survival rate), HepG2): 83% | viability at 10 µM [25]: 96.3% | viability at 10 µM ([10]; Homo sapiens, BXPC-3, 72 h, read-out: The results of antibiotic drug inhibiting cancer cell lines (cell viability analysis), BxPC-3): 72.9% | viability at 10 µM ([11]; 72 h, MKN-45, repeated experiment, read-out: The results of antibiotic drug inhibiting cancer cell lines (cell viability analysis), MKN-45): 121% | viability at 10 µM ([11]; MKN-45, drug 10 μM, 72 hours, WST-1, OD450 nm, read-out: cell viability (survival rate), MKN-45): 65.8% | viability at 10 µM ([12]; MCF7, 72 h, MCF-7, repeated experiment, read-out: The results of antibiotic drug inhibiting cancer cell lines (cell viability analysis), MCF-7): 90.1% | viability at 10 µM ([12]; MCF7, drug 10 μM, 72 hours, WST-1, OD450 nm, read-out: cell viability (survival rate), MCF7): 94.4% | viability at 10 µM ([13]; Homo sapiens, 72 h, read-out: The results of antibiotic drug inhibiting cancer cell lines (cell viability analysis), SAS): 76.4% | viability at 10 µM ([14]; 72 h, HeLa, repeated experiment, read-out: The results of antibiotic drug inhibiting cancer cell lines (cell viability analysis), HeLa): 117% | viability at 10 µM ([14]; HeLa, drug 10 μM, 72 hours, WST-1, OD450 nm, read-out: cell viability (survival rate), HeLa): 107% | viability at 10 µM [26]: 100% | viability at 10 µM ([15]; NCI-H1650, 72 h, H1650, repeated experiment, read-out: The results of antibiotic drug inhibiting cancer cell lines (cell viability analysis), H1650): 95.3% | viability at 10 µM ([15]; NCI-H1650, drug 10 μM, 72 hours, WST-1, OD450 nm, read-out: cell viability (survival rate), H1650): 33.4% | viability at 10 µM ([16]; Homo sapiens, ASPC1, 72 h, read-out: The results of antibiotic drug inhibiting cancer cell lines (cell viability analysis), AsPC-1): 82.8% | viability at 10 µM ([17]; 72 h, PC-3, repeated experiment, read-out: The results of antibiotic drug inhibiting cancer cell lines (cell viability analysis), PC-3): 116% | viability at 10 µM ([17]; drug 10 μM, 72 hours, WST-1, OD450 nm, read-out: cell viability (survival rate), PC3): 54.8% | viability at 10 µM ([18]; Homo sapiens, 72 h, read-out: The results of antibiotic drug inhibiting cancer cell lines (cell viability analysis), BCC): 116%

O=C([O-])C(O)[C@H](O)[C@@H](O)[C@H](O)[C@H](O)CO.O=C([O-])C(O)[C@H](O)[C@@H](O)[C@H](O)[C@H](O)CO.[Ca+2] (stereo partly shown) [Calcium Gluceptate]
cell viability (survival rate), LoVo [3, 27]: 55.29 | cell viability (survival rate), TSGH [4, 27]: 33.81 | cell viability (survival rate), A375 [5, 27]: 36.97 | cell viability (survival rate), AGS [6, 27]: 79.67 | cell viability (survival rate), HCT116 ([7]; drug 10 μM, 72 hours, WST-1, OD450 nm, head HCT116 / HCT116(WT)): 74.09 | cell viability (survival rate), A549 [8, 27]: 24.91 | cell viability (survival rate), HL-60 [19, 27]: 113.4525 | cell viability (survival rate), HepG2 [9, 27]: 76.88 | cell viability (survival rate), MKN-45 [11, 27]: 74.23 | cell viability (survival rate), MCF7 [12, 27]: 34.24 | cell viability (survival rate), HeLa [14, 27]: 43.93 | cell viability (survival rate), H1650 [15, 27]: 54.25 | cell viability (survival rate), PC3 [17, 27]: 37.91
